Literature values, collected in US8309103B2, “Association of fluconazole-tinidazole for the treatment of vaginal infections, its composition, preparation process and usage” (Alparis, S.A. DE C.V., priority 2004, dated 2012).
Like-named read-outs stand apart in the source and are kept apart here. One block for each compound: values may come before it.

Key:
[1] = test system: Bacterial Vaginosis (Gardnerella vaginallis)
Trichomonas vaginalis = conditions: 2 grams in an only dose, sexual partner also involved
[2] = in vivo, po
vaginal candidiasis = conditions: one dose of 150 mg; 1,017 patients with vaginal candidiasis

Share of the dose taken excreted (essentially urinary) (in 120 hours): 50%
Average plasmatic life (oral, one 2 g dose): about 25 hours
Time at which the highest seric rates are obtained (oral, one 2 g dose): third
Structure (SMILES): Cc1ncc([N+](=O)[O-])n1CC(C)O (centres unmarked) [secnidazole]

Structure (SMILES): CCS(=O)(=O)CCn1c([N+](=O)[O-])cnc1C [tinidazole]
Curative rate ([1]; an only dose of 2 g tinidazole): 92%
Curative rate ([1]; same amount (2 g) in a two-day scheme, other researchers): 51%

Structure (SMILES): Cc1ncc([N+](=O)[O-])n1CCO [metronidazole]
Efficacy (Trichomonas vaginalis): up to 85%

Relationship between plasma and the vaginal tissue [2]: 0.94-1.1
Structure (SMILES): OC(Cn1cncn1)(Cn1cncn1)c1ccc(F)cc1F [fluconazole]
Patients in whom well received and effective (vaginal candidiasis): 91%
